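Method: 48-hour compound exposure of cells in 96-well plates, five concentrations, linear interpolation of endpoints. GI50 marks 50% less growth. At the TGI there is no net growth.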
Assays:
Experiment in all cases: DTP human tumour cell line panel, 48 h
CAKI-1 renal = test system: CAKI-1 renal
HOP-62 NSCLC = test system: HOP-62 NSCLC
NCI-H23 lung = test system: NCI-H23 lung
OVCAR-5 ovarian = test system: OVCAR-5 ovarian
SK-MEL-28 melanoma = test system: SK-MEL-28 melanoma
SK-MEL-5 melanoma = test system: SK-MEL-5 melanoma
HOP-92 NSCLC = test system: HOP-92 NSCLC
SNB-19 CNS = test system: SNB-19 CNS
SW-620 colon = test system: SW-620 colon
SR leukemia = test system: SR leukemia

| SMILES | TGI (CAKI-1 renal) [µM] | TGI (HOP-62 NSCLC) [µM] | TGI (NCI-H23 lung) [µM] | TGI (OVCAR-5 ovarian) [µM] | TGI (SK-MEL-28 melanoma) [µM] | TGI (SK-MEL-5 melanoma) [µM] | TGI (HOP-92 NSCLC) [µM] | TGI (SNB-19 CNS) [µM] | TGI (SW-620 colon) [µM] | GI50 (CAKI-1 renal) [µM] | GI50 (HOP-62 NSCLC) [µM] | GI50 (HOP-92 NSCLC) [µM] | GI50 (NCI-H23 lung) [µM] | GI50 (OVCAR-5 ovarian) [µM] | GI50 (SK-MEL-28 melanoma) [µM] | GI50 (SK-MEL-5 melanoma) [µM] | GI50 (SNB-19 CNS) [µM] | GI50 (SW-620 colon) [µM] | TGI (SR leukemia) [µM] | GI50 (SR leukemia) [µM] |
| --- | --- | --- | --- | --- | --- | --- | --- | --- | --- | --- | --- | --- | --- | --- | --- | --- | --- | --- | --- | --- |
| O=C1C=CC(=O)c2c1nc(CBr)[nH]c2=O | > 100 | > 100 | > 100 | > 100 | > 100 | > 100 |  |  |  |  |  |  |  |  |  |  |  |  |  |  |
| Cc1[nH]c2cc([N+](=O)[O-])ccc2c1[N+](=O)[O-] | 47.1 | 32.8 | 58.6 | 79 | 77.8 | 27.6 | 23.8 | 56.5 | 97.9 |  |  |  |  |  |  |  |  |  |  |  |
| CCOC(=O)C1C(=O)CC(=O)C2CCCCC21 (stereo not given) | > 100 | > 100 | > 100 | > 100 | > 100 | > 100 | > 100 | > 100 | > 100 |  |  |  |  |  |  |  |  |  |  |  |
| COc1cnccc1Nc1nc(-c2nn(Cc3c(F)cc(OCCO)cc3F)c3ccccc23)ncc1OC | 29.5 | 8.32 | 8.69 | 24.5 | 9.66 | 13 | > 100 | 10.5 | 7.4 | 11.9 | 2.46 | 0.634 | 2.25 | 5.13 | 2.47 | 2.91 | 2.23 | 1.99 |  |  |
| COC(=O)[C@@]12C3=NO[C@]1(C(=O)OC)C(O[Si](C)(C)C(C)(C)C)[C@@H](OC(C)=O)[C@@H](OC(C)=O)[C@@H]2[C@@H](OCc1ccccc1)CC3 (stereo not given in full) | > 100 | > 100 | > 100 | > 100 | > 100 | > 100 | > 26.1 | > 100 | > 100 |  |  |  |  |  |  |  |  |  |  |  |
| CCc1c(C)c2cc(-n3c(-c4ccc(OC)cc4)csc3=N)c(O)c(C)c2oc1=O |  | 8.53 | 5.16 | 4.75 | 4.42 |  | 7.76 | 8.86 | 3.28 |  | 1.67 | 1.88 | 1.51 | 2.19 | 1.55 |  | 2.36 | 1.32 |  |  |
| CCOCCOCCOCCOCCOCCOCCOCCOCCOCCO (tested in a mixture with another compound) | 18.9 | 4.45 | 5.32 |  | > 32.5 | 1.81 | 2.9 |  | 8.17 | 1.42 | 1.07 | 0.643 | 0.957 |  | 3.1 | 0.586 |  | 1.56 |  |  |
| Cc1ccc(S(=O)(=O)NNS(C)(=O)=O)cc1 | > 100 | > 100 | > 100 |  |  | > 100 |  | > 100 | > 100 |  |  |  |  |  |  |  |  |  | > 100 |  |
| Cc1ccc(S(=O)(=O)C2CC2(Cl)Cl)cc1 (stereo not given) | 86.1 |  | 62.5 | > 100 | > 100 |  | 47.8 | > 100 | 44.1 |  |  |  |  |  |  |  |  |  |  |  |
| CN(CCCCCl)P(=O)(OCc1ccc([N+](=O)[O-])o1)OCC1OC(n2cc([N+](=O)[O-])c(=O)[nH]c2=O)CC1O (stereo not given) | > 100 | > 100 | > 100 | > 100 | > 100 | > 100 |  | > 100 | > 100 | 48.5 | 41.2 |  | 75.2 | > 100 | 45.9 | > 100 | > 100 | > 100 |  |  |
| COc1ccc2nc3ccccc3c(NCCCCN(CCCl)CCCl)c2c1 |  | 24.8 | 2.09 | > 23.6 | 8.02 | 3.37 |  | 7.9 | 2.74 |  |  |  |  |  |  |  |  |  | 2.79 |  |
| O=C(CI)Nc1ccc(Br)cc1 | 3.51 | 3.82 | 4.61 | 4.81 | 11.3 | 15.4 |  | 33.5 |  | 1.69 | 1.89 |  | 1.87 | 2.14 | 3.82 | 3.95 | 15.1 |  | > 100 | 0.365 |
| CCN(CC)c1c(C)nnn1C1OC(COC(C)=O)C(OC(C)=O)C(OC(C)=O)C1OC(C)=O (stereo not given) | > 100 | > 100 | > 100 | > 100 | > 100 | > 100 | > 100 | > 100 | 31.3 |  |  |  |  |  |  |  |  |  |  |  |
| O=C(Oc1c(Cl)cc(Cl)cc1Cl)c1ccccc1Nc1ccnc(C(F)(F)F)c1 | > 100 | 8.8 | 6.3 | 16.5 | > 100 | > 100 | > 100 | > 100 | > 100 | 7.12 | 2.66 | > 100 | 2.59 | 4.1 | 24.1 | 3.07 | 7.07 | 4.59 |  |  |
